# Test results taken from US7947279B2, “Peptide having hydrolase activity” (The Trustees of Columbia University in the City of New York, priority 2005, dated 2011).
# Entries after “also recorded” stand apart in the source; their conditions may differ.
# How the values were obtained:
# [1] = system: CA1-LTP in hippocampal slices; experiment: CA1-LTP in hippocampal slices (theta-burst); type: cell-based, mouse
# [2] = system: BST at the Schaffer collateral/CA1 connection of hippocampal slices; experiment: Basal synaptic transmission (BST) in hippocampal slices; type: cell-based, mouse
# mice (WT and APP/PS1) = experiment: Contextual and cued fear conditioning; type: in vivo, mouse; conditions: for freezing time in contextual learning: at 21 days
# Experimental: Behavioral Studies: Fear conditioning was performed in a conditioning chamber as previously described (Bourtchuladze et al., 1994; Gong et al., 2004). For contextual and cued fear conditioning mice were placed in the conditioning chamber for 2 min before the onset of a discrete tone (CS) (a 30 sec sound at 2800 Hz and 85 dB). In the last 2 sec of the CS, mice were given a foot shock (US) of 0.50 mA for 2 sec through the bars of the floor. After the CS/US pairing, the mice were left in the conditioning chamber for another 30 sec and then placed back in their home cages. Freezing behavior, defined as the absence of all movement except for that necessitated by breathing, was scored using Freezeview software. To evaluate contextual fear learning, freezing was measured for 5 min in the chamber in which the mice were trained 24 hrs after training. To evaluate cued fear conditioning, following contextual testing, the mice were placed in a novel context (triangular cage with smooth flat floor and with vanilla odorant) for 2 min (pre-CS test), after which they were exposed to the CS for 3 min (CS test), and freezing was measured. To evaluate the contextual fear over time, mice were placed for 5 min in the chamber in which the mice were trained 7- 14- 21-days after training. Sensory perception of the shock was determined through threshold assessment. Each animal was placed individually into the conditioning chamber. […] Animal behavior was evaluated for the first visible response to the shock (flinch), the first extreme motor response (run/jump), and the first vocalized distress (scream). Threshold to flinching, jumping, and screaming was quantified for each animal by averaging of the shock intensity at which each animal manifested a behavioral response of that type to the foot shock. Visual, motor, and motivation skills were also tested with visible platform training by measuring the time and the speed to reach a visible platform placed within a pool filled with water (Gong et al., 2004). Both time to reach the platform and swimming speed were recorded and analyzed with a video tracking system (HVS-2020, HVS Image, UK). No difference was observed among different groups of mice in the experiments in which fear conditioning was tested both in the presence of LDN and TAT fusion proteins. To decide the time of administration of LDN, experiments were performed in which the inhibitor was injected intra-peritoneally at different intervals (4 hrs before, 1 hr before, 1 hr after and 4 hrs after) from the electric shock. During the training phase, no difference was found in the freezing of LDN- or vehicle-injected mice.
# [3] = system: SY5Y neuroblastoma cells transfected with a degron CL1-GFP expression vector; experiment: Proteasome reporter assay (GFP^u); type: cell-based, human; conditions: substance alone
# Experimental: Proteasome reporter assays. In this cell line, human neuroblastoma SH-SY5Y cells were permanently transfected with reporter construct consisting of green fluorescent protein (GFP) conjugated at its C-terminus to a short degron sequence (CL-1) (Gilon et al., 1998). […] The SY5Y-GFP^u cells were grown in 1×DMEM (Invitrogen) supplemented with 15% fetal bovine serum (JRH), 1× penicillin/streptomycin (Gibco). After indicated treatments, GFP^u concentrations were assayed by densitometric analysis of immunoblots of total protein extracts (10 ug/lane) using monoclonal GFP antibodies (Santa Cruz Biotechnology) and visualized with HRP-conjugated secondary antibodies and ECL (Pierce). Loading equalization was normalized by probing blots with anti-ERK antibodies (Santa Cruz Biotechnology).
# phospho-CREB at Ser-133 = experiment: Phospho-CREB (Ser-133) Western blot in hippocampal cultures; type: cell-based, rat; conditions: LDN 10 μM
# Experimental: Western Blotting: Protein levels were assessed using standard procedures. Protein extraction was performed using buffer with and without detergent. For the extraction of protein using detergent, hippocampal tissues and cultured hippocampal neurons (5 DIV) were homogenized in RIPA buffer (50 mM Tris-HCl pH 7.4, 1% Triton X-100, 1% sodium deoxycholate, 0.1% SDS, 150 mM sodium chloride, 10 mM sodium fluoride, 30 mM sodium pyrophosphate, 50 mM sodium orthovanadate) containing 1× complete protease inhibitor (Roche) and 1 mM phenylmethylsulfonyl fluoride (PMSF). For extraction of proteins without detergent, hippocampal extracts were homogenized with disposable dounce homogenizers in buffer A, containing 10 mM HEPES pH 7.3, 300 mM sucrose, protease 1× complete protease inhibitor (Roche) and PMSF. After centrifugation at 10,000×g supernatant proteins were resolved on a 8% or 4-20% gradient Tris-Glycine gel, transferred onto PVDF or nitrocellulose membrane and blocked in 5% skim milk in PBS-Tween 0.1% (PBS-T). Membranes were probed with primary antibodies, and after washing with PBS-T incubated with an appropriate HRP-conjugated secondary antibody. The following antibodies were used: mouse monoclonal anti-ubiquitin (Chemicon), rabbit polyclonal anti-pCREB (Upstate Biotech.), rabbit polyclonal anti-PKA-RIIα (Santa Cruz Biotech. Inc), mouse monoclonal anti-Uch-L1 (Novocastra), monoclonal mouse anti-HA (Santa Cruz Biotech. Inc), and anti-PKA IIα. Detection was performed using HRP-conjugated secondary antibodies (Pierce, Rockford, Ill.). To control loading and transfer, protein immunoreactivities were normalized against total extracellular signal-regulated protein kinases (ERK1/2) levels with a rabbit analyzed using a rabbit polyclonal anti-ERK1/2 antibody (Cell Signaling Technology, Inc). NIH IMAGE was used to analyze the scanned blots and quantify the intensity of the protein signals.
# Preparation of Cell Cultures. Hippocampal cell cultures were prepared as previously described (Vitolo et al., 2002). In cell culture experiments fetuses at embryonic day 18 from timed pregnant Sprague-Dawley rats (Taconic Farms) were used. Fetuses were sacrificed and the hippocampi removed. Neurons were then dissociated, plated on 6 well-plates coated with poly-L-lysine and maintained in a defined serum-free medium containing minimum essential medium supplemented with N-2, glucose, albumin, pyruvic acid, antibiotics and antimycotics. […] 5 DIV cells were used for the experiments.
# [4] = LDN 5 μM, 15 min, listed as LDN
smiles,measurement,setting,value
"CC(=O)O/N=C1\C(=O)N(Cc2cc(Cl)ccc2Cl)c2ccc(Cl)cc21 [LDN-57444, reference compound]",LTP,"[1]; LDN 1 μM, 2-4 hr, listed as LDN",has no effect
same,LTP,"[1]; LDN 2.7 μM, 2-4 hr, listed as LDN",reduces CA1-LTP
same,LTP in Aβ-treated slices,"[1]; LDN 5 μM for 2 hrs, 200 nM Aβ, listed as LDN",does not further reduce potentiation; also recorded: did not further reduce LTP
same,LTP in APP/PS1 slices,"[1]; LDN 5 μM for 2 hrs, listed as LDN",does not further reduce potentiation; also recorded: did not further reduce LTP
same,LTP,"[1]; LDN 5 μM, 15 min",did not affect BST or LTP; also recorded: did not affect CA1-LTP
same,LTP,[1]; [4],did not affect basal synaptic transmission (BST) or LTP; also recorded: did not affect CA1-LTP
same,LTP,"[1]; LDN 5 μM, 2 hrs",blocked
same,LTP,"[1]; LDN 5 μM, 2 hrs, listed as LDN",diminished LTP; also recorded: reduced
same,LTP,"[1]; LDN 5 μM, 4 hrs",strongly reduced
same,LTP,"[1]; LDN 5 μM, 4 hrs, listed as LDN",reduced both; also recorded: strongly reduced
same,LTP,"[1]; LDN-57444, 2 hour exposure",approximately 70 % of vehicle treated slices
same,LTP,"[1]; LDN-57444, 4 hour exposure",~65 % of vehicle treated slices
same,baseline transmission in slices without tetanic stimulation,[1]; non-tetanized slices,did not affect baseline transmission
same,BST,"[2]; LDN 2.7 μM and 1 μM, 2-4 hr, listed as LDN",normal BST; also recorded: did not affect CA1-BST
same,BST,"[2]; LDN 5 μM, 15 min",did not affect BST or LTP; also recorded: did not affect CA1-BST
same,BST,[2]; [4],did not affect basal synaptic transmission (BST) or LTP; also recorded: does not affect CA1-BST
same,BST,"[2]; LDN 5 μM, 2 hrs",without affecting BST; also recorded: not affected
same,BST,"[2]; LDN 5 μM, 2 hrs, listed as LDN",without affecting BST; also recorded: not affected
same,BST,"[2]; LDN 5 μM, 4 hrs",strongly reduced
same,BST,"[2]; LDN 5 μM, 4 hrs, listed as LDN",reduced both; also recorded: strongly reduced
same,BST,"[2]; LDN-57444, 4 hour exposure",approximately 40 % of vehicle treated slices
same,cued fear conditioning,mice (WT and APP/PS1); LDN 0.4 mg/kg i.p.,did not show a difference
same,freezing time in contextual conditioning,"mice (WT and APP/PS1); LDN 0.4 mg/kg i.p. 4 hrs after the electric shock, twenty-four hours later",74 % of that of vehicle-treated mice
same,freezing time in contextual learning,mice (WT and APP/PS1); LDN 0.4 mg/kg i.p.,about 70 % of vehicle-treated mice
same,freezing time in contextual learning,"mice (WT and APP/PS1); LDN 0.4 mg/kg i.p., listed as LDN",70 % of vehicle-treated mice
same,contextual conditioning performance,"mice (WT and APP/PS1); LDN 0.4 mg/kg i.p., context at 1, 7, 14 and 21 days after training",worsened contextual conditioning performance
same,contextual learning,mice (WT and APP/PS1); LDN injected at 4 and 1 hour before the shock or at 1 hour after the shock,failed to impair contextual learning
same,freezing during the training phase,mice (WT and APP/PS1); LDN- versus vehicle-injected mice,no difference
same,GFP^u levels,[3],much larger increase in GFP
same,phospho-CREB enhancement / beneficial effect of TAT-HA-Uch-L1,phospho-CREB at Ser-133,blocked the beneficial effect of TAT-HA-Uch-L1; also recorded: did not allow the enhancement of phospho-CREB
same,phospho-CREB enhancement / beneficial effect of TAT-HA-Uch-L1,phospho-CREB at Ser-133; listed as LDN,blocked the beneficial effect of TAT-HA-Uch-L1; also recorded: did not allow the enhancement of phospho-CREB
